Reference: patent publication US20210330599A1, “Nanoparticles for Controlled Release of Anti-Biofilm Agents and Methods of Use” (University of Rochester, priority 2016, published 2021)
“And” between values parts separate entries of the source, which are not always exact repeats. Equal values may be shown once.

Key:
[1] = monomer / monomer residue; cited from earlier work
[2] = farnesol on one degradable tether length (6 degradable bonds)
S. mutans UA159 biofilms = assay: S. mutans biofilm on sHA discs, topical treatment regimen (Example 2); type: cell-based, Streptococcus mutans; details: equivalent farnesol dose / controls
Method: Biofilms of S. mutans UA159 were formed on saliva coated hydroxyapatite (sHA) surfaces (12.7 mm in diameter, 1 mm in thickness, Clarkson Chromatography Products Inc., South Williamsport, Pa.) as detailed elsewhere (Koo et al., 2010, J Bacteriol, 192(12):3024-32). […] Disks were pretreated with the above-described solutions for 10 min, washed twice with sterile saline, and transferred back to culture media. […] Biofilms were allowed to form on the discs without interruption for 6 hours at which point a second treatment was applied. The next day, biofilms were treated every 6 hours for a total of 3 treatments and the culture media was changed twice. After 48 hours, the amount of colony forming units (CFU) per dry-weight of biofilms was assessed. Briefly, the biofilms were removed and homogenized, then plated onto blood agar plates, and after incubation at 37° C., 5% CO2, the CFUs were counted as described previously (Koo et al., 2003, J Antimicrob Chemother, 52(5):782-9).

[3] = system: Streptococcus mutans UA159 biofilms; assay: S. mutans biofilm on sHA discs, topical treatment regimen (Example 3); type: cell-based; details: 7 topical applications over 54 h
Method: Streptococcus mutans UA159, a well-characterized EPS matrix producing and cariogenic pathogen (W. H. Bowen and H. Koo, Caries Res., 2011, 45, 69-86), was used to assess the effect of nanoparticle-mediated delivery of farnesol on biofilm formation using a topical treatment regimen (Horev et al., ACS Nano, 2015, 9, 2390-2404; Koo et al., J. Antimicrob. Chemother., 2003, 52, 782-789). The treatment solutions were: free nanoparticles (1.9 mg ml^−1 in PBS, pH 7.0), farnesol-loaded nanoparticles (1.9 mg ml^−1 loaded with 0.5 mg ml^−1 farnesol, in PBS, pH 7.0), free farnesol (0.5 mg ml^−1 farnesol, in PBS, pH 7.0, 20% ethanol (EtOH)), vehicle control for free farnesol (PBS, pH 7.0, 20% EtOH), and PBS (pH 7.0). A 20% v/v ethanol solution was used as a vehicle to solubilize free farnesol, which is otherwise insoluble in aqueous media (Koo et al., J. Antimicrob. Chemother., 2003, 52, 782-789). […]
The sHA discs and biofilms were treated for 10 min, washed twice with sterile saline (0.89% NaCl), and transferred to culture media. […] Aliquots of biofilm suspension were serially diluted and plated onto blood agar plates, and after 48 h incubation (37° C. and 5% CO2), the colonies were visually counted. […]

Streptococcus mutans = details: cited from earlier work
[4] = pKa and protonation values of monomers and polymers; type: physicochemical; details: FIG. 22
S. mutans cells = system: S. mutans cells
From the text: (§1) In addition, amine fluoride is known to have antibacterial properties.

[5] = Encapsulation of fluoride using NPC; type: physicochemical; details: preliminary studies
From the text: as §1

With Imidazole methacrylate [IMA] as the compound, how does the pKa of monomer [1] read?
Its pKa of monomer is 6.9-7.0.

For “poly(dimethylaminoethyl methacrylate)-b-poly(dimethylaminoethyl methacrylate-co-propylacrylic acid-co-butyl methacrylate) [NPC]”, which “duration of sustained delivery of farnesol” value [2] is on record?
Its value is “up to 6 days”.

With `CC(C)=CCCC(C)=CCCC(C)=CCO` [farnesol] as the compound, how does the “effect on biofilm CFU relative to PBS” value (S. mutans UA159 biofilms) read?
Its value is “no effect on CFU relative to PBS”.

What about the “CFUs per biofilm dry weight / antibiofilm efficacy” value [3] of the same compound?
Its value is “only a modest reduction”.

And the MIC of farnesol (Streptococcus mutans)?
Its MIC of farnesol is under 28 µg/mL.

With `C=C(C)C(=O)O` [MAA, methacrylic acid] as the compound, how does the pKa of monomer [1] read?
The pKa of monomer was about 4.6.

For ethylacrylic acid [EAA], which “pKa of synthesized imidazole and ethylacrylic acid functionalities” value [4] is on record?
The value was 6.3.

And the pKa of monomer [1]?
The pKa of monomer was ~6.3 and 6.3-6.5.

Which pKa of monomer [1] does the source give for `C=C(C)C(=O)OCCN(C)C` [DMAEMA, dimethylaminoethyl methacrylate] here?
Its pKa of monomer is ~7.2 and 7.2-7.4.

For propylacrylic acid [PAA], which pKa of monomer [1] is on record?
Its pKa of monomer is ~7 and 6.8-7.0.

For Amine fluoride, which biofilm formation (S. mutans cells) is on record?
Its biofilm formation is “inhibit biofilm formation”.

What about the “killing of S. mutans cells” value (S. mutans cells) of the same compound?
Its value is “able to kill S. mutans cells at the μM level”.

With `[F-].[Na+]` [sodium fluoride] as the compound, how does the “compatibility with loading into NPC” value [5] read?
Its value is “not compatible with loading into or onto the NPC”.

Which pKa of monomer [1] does the source give for `C=C(C)C(=O)OCCN(CC)CC` [DEAEMA, diethylaminoethyl methacrylate] here?
Its pKa of monomer is about 7.
